Target: Isoform 2 of Hepatocyte growth factor receptor (2) (Homo sapiens, UniProt P08581)
Assay: c-Met Z-LYTE Assay
Details: pH 7; 25 °C
Experimental: The c-Met kinase activity of five target compounds and three positive compounds were evaluated using standard Z-LYTE Assays (fluorescence resonance energy transfer, FRET). The test compounds or reference controls were dissolved indimethyl sulfoxide (DMSO) as stock solution. […] 5 µL of the detectionreagents A (Invitrogen) was added at final concentrations of 64-fold dilution. The plates were incubated at room temperature for 60 min and then read in the Envision plate reader (PerkinElmer).

Sequence of Isoform 2 of Hepatocyte growth factor receptor (2) (P08581 as listed by the source): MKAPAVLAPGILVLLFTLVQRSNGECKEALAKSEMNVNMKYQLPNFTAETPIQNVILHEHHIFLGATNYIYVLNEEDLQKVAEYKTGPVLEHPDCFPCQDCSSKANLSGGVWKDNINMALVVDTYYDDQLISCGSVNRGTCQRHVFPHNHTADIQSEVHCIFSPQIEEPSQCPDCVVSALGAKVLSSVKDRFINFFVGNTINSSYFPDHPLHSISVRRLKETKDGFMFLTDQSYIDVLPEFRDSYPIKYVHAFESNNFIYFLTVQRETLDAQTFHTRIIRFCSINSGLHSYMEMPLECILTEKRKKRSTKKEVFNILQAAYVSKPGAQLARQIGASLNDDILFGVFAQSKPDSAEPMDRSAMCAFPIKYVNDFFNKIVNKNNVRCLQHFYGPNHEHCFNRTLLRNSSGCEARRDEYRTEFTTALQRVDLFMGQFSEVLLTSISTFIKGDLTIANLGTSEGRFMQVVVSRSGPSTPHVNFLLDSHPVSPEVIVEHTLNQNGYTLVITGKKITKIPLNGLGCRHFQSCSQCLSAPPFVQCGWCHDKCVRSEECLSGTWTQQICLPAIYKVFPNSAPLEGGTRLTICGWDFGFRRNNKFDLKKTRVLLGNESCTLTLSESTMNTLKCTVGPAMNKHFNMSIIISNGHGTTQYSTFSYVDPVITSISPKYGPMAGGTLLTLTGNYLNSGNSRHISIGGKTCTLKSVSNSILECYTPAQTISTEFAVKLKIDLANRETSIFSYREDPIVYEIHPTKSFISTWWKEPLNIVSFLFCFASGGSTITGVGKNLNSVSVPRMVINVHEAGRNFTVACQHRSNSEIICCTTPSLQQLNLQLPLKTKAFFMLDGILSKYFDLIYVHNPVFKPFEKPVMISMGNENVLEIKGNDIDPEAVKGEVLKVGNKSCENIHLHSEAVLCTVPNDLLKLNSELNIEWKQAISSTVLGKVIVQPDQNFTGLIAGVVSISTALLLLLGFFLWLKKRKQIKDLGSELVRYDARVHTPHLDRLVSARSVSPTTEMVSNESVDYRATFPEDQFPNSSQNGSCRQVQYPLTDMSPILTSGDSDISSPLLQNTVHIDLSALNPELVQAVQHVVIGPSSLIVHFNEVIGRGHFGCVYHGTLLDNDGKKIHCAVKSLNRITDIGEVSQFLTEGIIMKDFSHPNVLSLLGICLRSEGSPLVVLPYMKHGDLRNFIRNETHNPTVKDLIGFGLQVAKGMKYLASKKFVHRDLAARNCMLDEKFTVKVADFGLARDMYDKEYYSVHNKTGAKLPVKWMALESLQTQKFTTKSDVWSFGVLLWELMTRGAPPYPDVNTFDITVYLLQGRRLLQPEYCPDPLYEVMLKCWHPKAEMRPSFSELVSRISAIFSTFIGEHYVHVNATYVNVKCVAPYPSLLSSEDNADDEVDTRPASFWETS

| Compound | IC50 [nM] |
| --- | --- |
| Fc1ccc(Cl)c(C2(c3n[nH]c4ncc(-c5cnn(C6CCNCC6)c5)cc34)CC2)c1Cl [3-(1-(2,6-dichloro-3-fluorophenyl)cyclopropyl)-5-(1-(piperidin-4-yl)-1H-pyrazol-4-yl)-1H-pyrazolo[3,4-b]pyridine (10)] | 47.4 |
| Cc1[nH]c2ncc(-c3cnn(C4CCNCC4)c3)cc2c1C(C)c1c(Cl)ccc(F)c1Cl (centres undefined) [3-(1-(2,6-dichloro-3-fluorophenyl)ethyl)-2-methyl-5-(1-(piperidin-4-yl)-1H-pyrazol-4-yl)-1H-pyrrolo[2,3-b]pyridine (6)] | 286 |
| O=C(NCc1ccc(F)cc1)Nc1ccc(Oc2ccnc3[nH]ccc23)c(F)c1 [3-(3-fluoro-4-{1H-pyrrolo[2,3-b]pyridin-4-yloxy}phenyl)-1-[(4-fluorophenyl)methyl]urea (2)] | 11 |
| O=C(NCc1ccc(F)cc1)Nc1ccc(Oc2ccnc3[nH]c(-c4cccnc4)cc23)c(F)c1 [3-(3-fluoro-4-{[2-(pyridin-3-yl)-1H-pyrrolo[2,3-b]pyridin-4-yl]oxy}phenyl)-1-[(4-fluorophenyl)methyl]urea (2a)] | 2 |

Further lines, results first:

| IC50 [nM] | Compound |
| --- | --- |
| 22.8 | Fc1ccc(Cl)c(Sc2n[nH]c3ncc(-c4cnn(C5CCNCC5)c4)cc23)c1Cl [3-((2,6-dichloro-3-fluorophenyl)thio)-5-(1-(piperidin-4-yl)-1H-pyrazol-4-yl)-1H-pyrazolo[3,4-b]pyridine (9)] |
| 51.2 | CC(Sc1cc(-c2cnn(C3CCNCC3)c2)cnc1N)c1c(Cl)ccc(F)c1Cl (centres undefined) [3-{[1-(2,6-dichloro-3-fluorophenyl)ethyl]sulfanyl}-5-[1-(piperidin-4-yl)-1H-pyrazol-4-yl]pyridin-2-amine (11b)] |
| 982 | CC(c1c(Cl)ccc(F)c1Cl)c1c(Cl)[nH]c2ncc(-c3cnn(C4CCNCC4)c3)cc12 (centres undefined) [4-(4-{2-chloro-3-[1-(2,6-dichloro-3-fluorophenyl)ethyl]-1H-pyrrolo[2,3-b]pyridin-5-yl}-1H-pyrazol-1-yl)piperidine (7)] |
| < 100 | CC(c1c(Cl)ccc(F)c1Cl)c1c[nH]c2ncc(-c3cnn(C4CCNCC4)c3)cc12 (centres undefined) [4-(4-{3-[1-(2,6-dichloro-3-fluorophenyl)ethyl]-1H-pyrrolo[2,3-b]pyridin-5-yl}-1H-pyrazol-1-yl)piperidine (1)] |
| 13 | c1ccc(-c2cnc3nnc(C4(c5ccc6ncccc6c5)CC4)n3n2)cc1 [6-(1-{6-phenyl-[1,2,4]triazolo[4,3-b][1,2,4]triazin-3-yl}cyclopropyl)quinoline (5)] |
